Laboratory results as given in ChEMBL document CHEMBL1142803, “Synthesis and in vitro study of novel 7-O-acyl derivatives of Oroxylin A as antibacterial agents” (2005).
In brackets after ≈: the same amount, converted by molar mass.

Experiments:
Staphylococcus aureus = assay: Minimum inhibitory concentration against gram positive Staphylococcus aureus (MTCC 96) using broth dilution method; format: functional
Bacillus subtilis = assay: Minimum inhibitory concentration against gram positive Bacillus subtilis (MTCC 441) using broth dilution method; format: functional
Bacillus sp. = assay: Minimum inhibitory concentration against gram positive Bacillus sphaericus (MTCC 11) using broth dilution method; format: functional, Lysinibacillus sphaericus; conditions: Bacillus sp. (in: firmicutes)
Klebsiella aerogenes = assay: Minimum inhibitory concentration against gram negative Klebsiella aerogenes (MTCC 39) using broth dilution method; format: functional
[1] = Minimum inhibitory concentration against gram negative Chromobacterium violaceum (MTCC 2656) using broth dilution method; format: functional

Compound | MIC (Staphylococcus aureus) [µg/mL] | MIC (Bacillus subtilis) [µg/mL] | MIC (Bacillus sp.) [µg/mL] | MIC (Klebsiella aerogenes) [µg/mL] | MIC [1] [µg/mL]
CCCC(=O)Oc1cc2oc(-c3ccccc3)cc(=O)c2c(O)c1OC | 25 (≈ 70.6 µM) | 25 (≈ 70.6 µM) | 6.25 (≈ 17.6 µM) | 25 (≈ 70.6 µM) | 6.25 (≈ 17.6 µM)
CCCCCCCCCCCC(=O)Oc1cc2oc(-c3ccccc3)cc(=O)c2c(O)c1OC | 12.5 (≈ 26.8 µM) | 25 (≈ 53.6 µM) | 12.5 (≈ 26.8 µM) | 12.5 (≈ 26.8 µM) | 25 (≈ 53.6 µM)
COc1c(OC(=O)C/C=C/c2ccccc2)cc2oc(-c3ccccc3)cc(=O)c2c1O | 12.5 (≈ 29.2 µM) | 25 (≈ 58.4 µM) | 12.5 (≈ 29.2 µM) | 12.5 (≈ 29.2 µM) | 25 (≈ 58.4 µM)
COc1c(OC(=O)c2ccc(C)cc2)cc2oc(-c3ccccc3)cc(=O)c2c1O | 50 (≈ 124 µM) | 50 (≈ 124 µM) | 25 (≈ 62.1 µM) | 25 (≈ 62.1 µM) | 50 (≈ 124 µM)
CC1(C)S[C@@H]2[C@H](NC(=O)COc3ccccc3)C(=O)N2[C@H]1C(=O)O [PENICILLIN V] | 1.56 (≈ 4.46 µM) | 1.56 (≈ 4.46 µM) | 3.12 (≈ 8.92 µM) | 6.25 (≈ 17.8 µM) | 12.5 (≈ 35.7 µM)
CCCCCCCCCCCCCCCCCC(=O)Oc1cc2oc(-c3ccccc3)cc(=O)c2c(O)c1OC | 25 (≈ 45.4 µM) | 12.5 (≈ 22.7 µM) | 12.5 (≈ 22.7 µM) | 25 (≈ 45.4 µM) | 12.5 (≈ 22.7 µM)
COc1c(O)cc2oc(-c3ccccc3)cc(=O)c2c1O [OROXYLIN A] | 50 (≈ 176 µM) | 50 (≈ 176 µM) | 25 (≈ 87.9 µM) | 50 (≈ 176 µM) | 25 (≈ 87.9 µM)
CCOc1cc2oc(-c3ccccc3)cc(=O)c2c(O)c1OC | 50 (≈ 160 µM) | 25 (≈ 80 µM) | 25 (≈ 80 µM) | 25 (≈ 80 µM) | 25 (≈ 80 µM)
CCCCCCCCCCCCCCCC(=O)Oc1cc2oc(-c3ccccc3)cc(=O)c2c(O)c1OC | 25 (≈ 47.8 µM) | 25 (≈ 47.8 µM) | 25 (≈ 47.8 µM) | 12.5 (≈ 23.9 µM) | 25 (≈ 47.8 µM)
COc1cc2oc(-c3ccccc3)cc(=O)c2c(O)c1OC [MOSLOFLAVONE] | 50 (≈ 168 µM) | 25 (≈ 83.8 µM) | 12.5 (≈ 41.9 µM) | 50 (≈ 168 µM) | 25 (≈ 83.8 µM)
COc1c(OC(C)=O)cc2oc(-c3ccccc3)cc(=O)c2c1O | 50 (≈ 153 µM) | 12.5 (≈ 38.3 µM) | 25 (≈ 76.6 µM) | 50 (≈ 153 µM) | 25 (≈ 76.6 µM)
COc1c(OC(=O)c2ccccc2)cc2oc(-c3ccccc3)cc(=O)c2c1O | 25 (≈ 64.4 µM) | 12.5 (≈ 32.2 µM) | 6.25 (≈ 16.1 µM) | 25 (≈ 64.4 µM) | 12.5 (≈ 32.2 µM)
COc1cc2oc(-c3ccccc3)cc(=O)c2c(OC)c1OC [BAICALEIN TRIMETHYL ETHER] | 25 (≈ 80 µM) | 50 (≈ 160 µM) | 25 (≈ 80 µM) | 50 (≈ 160 µM) | 25 (≈ 80 µM)
CCCCCC(=O)Oc1cc2oc(-c3ccccc3)cc(=O)c2c(O)c1OC | 25 (≈ 65.4 µM) | 25 (≈ 65.4 µM) | 12.5 (≈ 32.7 µM) | 25 (≈ 65.4 µM) | 25 (≈ 65.4 µM)
CCOc1cc2oc(-c3ccccc3)cc(=O)c2c(OCC)c1OC | 25 (≈ 73.4 µM) | 25 (≈ 73.4 µM) | 12.5 (≈ 36.7 µM) | 25 (≈ 73.4 µM) | 25 (≈ 73.4 µM)
COc1c(OC(=O)c2ccccc2Cl)cc2oc(-c3ccccc3)cc(=O)c2c1O | 12.5 (≈ 29.6 µM) | 25 (≈ 59.1 µM) | 25 (≈ 59.1 µM) | 25 (≈ 59.1 µM) | 25 (≈ 59.1 µM)
COc1cc(C(=O)Oc2cc3oc(-c4ccccc4)cc(=O)c3c(O)c2OC)cc(OC)c1OC | 25 (≈ 52.3 µM) | 12.5 (≈ 26.1 µM) | 25 (≈ 52.3 µM) | 12.5 (≈ 26.1 µM) | 6.25 (≈ 13.1 µM)
CN[C@@H]1[C@H](O[C@H]2[C@H](O[C@H]3[C@H](O)[C@@H](O)[C@H](N=C(N)N)[C@@H](O)[C@@H]3N=C(N)N)O[C@@H](C)[C@]2(O)C=O)O[C@@H](CO)[C@H](O)[C@H]1O (stereo in doubt) [STREPTOMYCIN] | 6.25 (≈ 10.7 µM) | 6.25 (≈ 10.7 µM) | 12.5 (≈ 21.5 µM) | 1.56 (≈ 2.69 µM) | 3.12 (≈ 5.37 µM)
CCCCCCCCCCCCCC(=O)Oc1cc2oc(-c3ccccc3)cc(=O)c2c(O)c1OC | 50 (≈ 101 µM) | 25 (≈ 50.5 µM) | 12.5 (≈ 25.3 µM) | 50 (≈ 101 µM) | 25 (≈ 50.5 µM)
